In patent publication US20040224958A1, “Pyridopyrimidinone derivatives for treatment of neurodegenerative disease” (priority 2000, published 2004):
Read-outs that look alike come from different tables or passages of the source.

Key:
cdk2/cyclinA = cdk2/cyclinA (Homo sapiens, UniProt P24941); test: Cyclin-Dependent Kinase Assay cdk2/cyclinA
cdk4/D = cdk4/D (Homo sapiens, UniProt P11802); test: Cyclin-Dependent Kinase 4 (cdk4) Assay; type: biochemical; settings: read-out: cdk4/D IC50
cdc2/cyclinB = cdc2/cyclinB (Homo sapiens, UniProt P06493); test: Cyclin-Dependent Kinase Assay cdc2/cyclinB
Chain of cdc2/cyclinB (P06493 whole entry): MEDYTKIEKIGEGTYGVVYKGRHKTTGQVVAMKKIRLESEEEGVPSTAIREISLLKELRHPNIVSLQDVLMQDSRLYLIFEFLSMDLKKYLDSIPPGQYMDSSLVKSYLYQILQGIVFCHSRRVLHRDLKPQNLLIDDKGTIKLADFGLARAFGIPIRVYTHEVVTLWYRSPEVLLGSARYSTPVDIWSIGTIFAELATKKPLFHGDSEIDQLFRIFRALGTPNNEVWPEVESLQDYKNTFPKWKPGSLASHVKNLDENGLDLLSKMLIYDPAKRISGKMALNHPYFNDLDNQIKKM
Chain of cdc2/cyclinB (P14635 whole entry, further chain): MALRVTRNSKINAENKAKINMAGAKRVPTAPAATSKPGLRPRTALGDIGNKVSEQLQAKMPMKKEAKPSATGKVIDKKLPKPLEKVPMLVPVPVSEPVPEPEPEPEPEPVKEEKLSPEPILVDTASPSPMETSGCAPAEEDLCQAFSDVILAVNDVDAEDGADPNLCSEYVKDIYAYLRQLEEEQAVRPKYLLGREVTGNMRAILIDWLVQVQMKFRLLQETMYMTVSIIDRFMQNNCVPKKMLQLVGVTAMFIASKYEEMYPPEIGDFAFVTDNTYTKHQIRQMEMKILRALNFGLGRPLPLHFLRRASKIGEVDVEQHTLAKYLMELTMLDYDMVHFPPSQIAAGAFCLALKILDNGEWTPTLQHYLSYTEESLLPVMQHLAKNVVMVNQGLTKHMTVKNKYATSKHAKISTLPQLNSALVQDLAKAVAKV
Method: Cyclin-Dependent Kinase Assays (cdk2/cyclinE, cdk2/cyclinA, cdc2/cyclinB)
All components except the ATP were added to the wells, and the plate was placed on a plate mixer for 2 minutes. The reaction was begun by addition of [^32P]ATP, and the plate was incubated at 25° C. for 15 minutes. The reaction was terminated by addition of 0.1 mL of 20% TCA. The plate was kept at 4° C. for at least 1 hour to allow the substrate to precipitate. The wells were then washed five times with 0.2 mL of 10% TCA and ^32p incorporation determined with a beta plate counter (Wallac Inc., Gaithersburg, Md.).

Cdk5/p25 = Cdk5/p25 (Homo sapiens, UniProt Q00535); test: Cyclin-Dependent Kinase 5 High Throughput Screening (cdk5-HTS) Assay; type: biochemical; settings: high throughput screen
Method in brief: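 Cdk5/p25 (1.0 μg/mL) phosphorylates GST-RbCOOH (20 μg/mL) in 50 mM Tris pH 7.4 with 10 mM MgCl2 and 20 μM ATP spiked with [γ33P]ATP, 30 min at room temperature. After EDTA stop, substrate captured on glutathione-coated plates; 33P incorporation counted by scintillation; IC50 determined.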

cdk2/cyclinE = cdk2/cyclinE (Homo sapiens, UniProt P24941); test: Cyclin-Dependent Kinase Assay cdk2/cyclinE

Chain of cdk4/D (P11802 whole entry): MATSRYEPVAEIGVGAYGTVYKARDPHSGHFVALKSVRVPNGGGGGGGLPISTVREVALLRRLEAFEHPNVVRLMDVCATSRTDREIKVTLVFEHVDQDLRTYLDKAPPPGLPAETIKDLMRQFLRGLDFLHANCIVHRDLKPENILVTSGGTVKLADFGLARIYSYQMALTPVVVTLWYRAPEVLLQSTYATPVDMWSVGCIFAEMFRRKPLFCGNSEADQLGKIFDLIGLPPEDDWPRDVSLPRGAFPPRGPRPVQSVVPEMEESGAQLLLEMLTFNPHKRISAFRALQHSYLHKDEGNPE
Chain of cdk4/D (P24385 whole entry, further chain): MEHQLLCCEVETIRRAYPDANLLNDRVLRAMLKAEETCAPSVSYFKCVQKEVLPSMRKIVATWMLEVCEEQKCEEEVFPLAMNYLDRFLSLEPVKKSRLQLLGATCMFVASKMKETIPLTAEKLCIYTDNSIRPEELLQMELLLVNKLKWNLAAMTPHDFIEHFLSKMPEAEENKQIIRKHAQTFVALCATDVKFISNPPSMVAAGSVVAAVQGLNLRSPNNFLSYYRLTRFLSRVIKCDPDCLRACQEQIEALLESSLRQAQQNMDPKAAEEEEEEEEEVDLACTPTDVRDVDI

| Compound | IC50 (cdk2/cyclinA; cdk2/A IC50) | IC50 (cdk4/D) | IC50 (cdc2/cyclinB) | IC50 (Cdk5/p25) | IC50 (cdk2/cyclinE; cdk2/E IC50) | IC50 (cdk2/cyclinA; read-out: cdk2/A IC50) | IC50 (cdc2/cyclinB; read-out: cdk1/B IC50) | IC50 (cdk2/cyclinE; read-out: cdk2/E IC50) |
| --- | --- | --- | --- | --- | --- | --- | --- | --- |
| CCCn1c(=O)ccc2cnc(Nc3ccc(F)c(C(F)(F)F)c3)nc21 [Example 335, 2-(4-Fluoro-3-trifluoromethyl-phenylamino)-8-propyl-8H-pyrido[2,3-d]pyrimidin-7-one] | 1100 nM | 1600 nM | 250 nM | 340 nM | 160 nM |  |  |  |
| CCC(CC)n1c(=O)ccc2cnc(Nc3ccc(F)c(Cl)c3)nc21 [Example 481, 2-(3-Chloro-4-fluoro-phenylamino)-8-(1-ethyl-propyl)-8H-pyrido[2,3-d]pyrimidin-7-one] | 418 nM | 938 nM | 134 nM | 39.1 nM | 69.3 nM |  |  |  |
| 2-(3-Hydroxy-4-methoxy-phenylamino)-8-propyl-8H-pyrido[2,3-d]pyrimidin-7-one [Example 296] |  | 540 nM |  | 120 nM |  | 960 nM | 440 nM | 240 nM |
| CC(C)n1c(=O)ccc2cnc(Nc3ccc(NC(=O)OC(C)(C)C)cc3)nc21 [Example 411, [4-(8-Isopropyl-7-oxo-7,8-dihydro-pyrido[2,3-d]pyrimidin-2-ylamino)-phenyl]-carbamic acid tert-butyl ester] | 263 nM | 180 nM | 273 nM | 177 nM | 200 nM |  |  |  |
| CCCn1c(=O)ccc2cnc(Nc3cc(C)cc(C)c3)nc21 [Example 346, 2-(3,5-Dimethyl-phenylamino)-8-propyl-8H-pyrido[2,3-d]pyrimidin-7-one] | 450 nM | 310 nM | 61 nM | 29 nM | 260 nM |  |  |  |
| COc1cc(Nc2ncc3ccc(=O)n(C(C)C)c3n2)cc(OC)c1OC [Example 417, 8-Isopropyl-2-(3,4,5-trimethoxy-phenylamino)-8H-pyrido[2,3-d]pyrimidin-7-one] | 870 nM | 3400 nM | 880 nM | 170 nM | 590 nM |  |  |  |
| O=c1ccc2cnc(Nc3ccc(O)cc3F)nc2n1CC1CC1 [Example 566, 8-Cyclopropylmethyl-2-(2-fluoro-4-hydroxy-phenylamino)-8H-pyrido[2,3-d]pyrimidin-7-one] | 615 nM | 855 nM | 445 nM | 255 nM | 187 nM |  |  |  |
| NS(=O)(=O)c1cccc(Nc2ncc3ccc(=O)n(C4CCCC4)c3n2)c1 [Example 547, 3-(8-Cyclopentyl-7-oxo-7,8-dihydro-pyrido[2,3-d]pyrimidin-2-ylamino)-benzenesulfonamide] | 590 nM | 54 nM | 300 nM | 66 nM | 110 nM |  |  |  |
| CCCn1c(=O)ccc2cnc(Nc3ccc([N+](=O)[O-])cc3F)nc21 [Example 320, 2-(2-Fluoro-4-nitro-phenylamino)-8-propyl-8H-pyrido[2,3-d]pyrimidin-7-one] | 2640 nM | 1650 nM | 669 nM | 375 nM | 451 nM |  |  |  |
| CCC(C)n1c(=O)ccc2cnc(Nc3ccc(OC)c(OC)c3)nc21 (stereo not drawn) [Example 454, 8-sec-Butyl-2-(3,4-dimethoxy-phenylamino)-8H-pyrido[2,3-d]pyrimidin-7-one] | 115 nM | 262 nM | 59.5 nM | 21.5 nM | 68.3 nM |  |  |  |
| CCCCn1c(=O)ccc2cnc(Nc3ccc(O)cc3F)nc21 [Example 382, 8-Butyl-2-(2-fluoro-4-hydroxy-phenylamino)-8H-pyrido[2,3-d]pyrimidin-7-one] | 1550 nM | 670 nM | 1300 nM | 590 nM | 320 nM |  |  |  |
| CCC(CC)n1c(=O)ccc2cnc(Nc3ccc(F)cc3F)nc21 [Example 483, 2-(2,4-Difluoro-phenylamino)-8-(1-ethyl-propyl)-8H-pyrido[2,3-d]pyrimidin-7-one] | 1670 nM | 1330 nM | 731 nM | 169 nM | 354 nM |  |  |  |
| CCC(CC)n1c(=O)ccc2cnc(Nc3ccc4c(c3)NC(=O)CS4)nc21 [Example 520, 8-(1-Ethyl-propyl)-2-(3-oxo-3,4-dihydro-2H-1,4-benzothiazin-6ylamino)-8H-pyrido[2,3-d]pyrimidin-7-one] | 86 nM | 120 nM | 51 nM | 9.8 nM | 41 nM |  |  |  |
| CCC(CC)n1c(=O)ccc2cnc(Nc3ccc(NC(=O)OC(C)(C)C)cc3)nc21 [Example 494, {4-[8-(1-Ethyl-propyl)-7-oxo-7,8-dihydro-pyrido[2,3-d]pyrimidin-2-ylamino]-phenyl}-carbamic acid tert-butyl ester] | 440 nM | 230 nM | 102 nM | 72 nM | 127 nM |  |  |  |
| NS(=O)(=O)c1ccc(Nc2ncc3ccc(=O)n(CC4CC4)c3n2)cc1 [Example 571, 4-(8-Cyclopropylmethyl-7-oxo-7,8-dihydro-pyrido[2,3-d]pyrimidin-2-ylamino)-benzenesulfonamide] | 15 nM | 65 nM | 29 nM | 8.8 nM | 5.1 nM |  |  |  |
| CCC(CC)n1c(=O)ccc2cnc(Nc3ccc4[nH]c5ccccc5c4c3)nc21 [Example 516, 2-(9H-Carbazol-3-ylamino)-8-(I-ethyl-propyl)-8H-pyrido[2,3-d]pyrimidin-7-one] | 280 nM | 28 nM | 62 nM | 33 nM | 95 nM |  |  |  |
| CCC(CC)n1c(=O)ccc2cnc(Nc3cccc(C(F)(F)F)c3)nc21 [Example 487, 8-(1-Ethyl-propyl)-2-(3-trifluoromethyl-phenylamino)-8H-pyrido[2,3-d]pyrimidin-7-one] | 728 nM | 692 nM | 177 nM | 76.8 nM | 210 nM |  |  |  |
| CC(C)n1c(=O)ccc2cnc(Nc3cc(Cl)cc(Cl)c3)nc21 [Example 429, 2-(3,5-Dichloro-phenylamino)-8-isopropyl-8H-pyrido[2,3-d]pyrimidin-7-one] | 860 nM | 560 nM | 230 nM | 39 nM | 120 nM |  |  |  |
| CC(C)n1c(=O)ccc2cnc(Nc3cccc([N+](=O)[O-])c3)nc21 [Example 406, 8-Isopropyl-2-(3-nitro-phenylamino)-8H-pyrido[2,3-d]pyrimidin-7-one] | 160 nM | 260 nM | 113 nM | 52.5 nM | 94.7 nM |  |  |  |
| O=c1ccc2cnc(Nc3ccc(O)c(CN4CCOCC4)c3)nc2n1C1CCCC1 [Example 550, 8-Cyclopentyl-2-(4-hydroxy-3-morpholin-4-ylmethyl-phenylamino)-8H-pyrido[2,3-d]pyrimidin-7-one] | 200 nM | 310 nM | 510 nM | 190 nM | 110 nM |  |  |  |
| CCC(CC)n1c(=O)ccc2cnc(Nc3ccc(F)c(C(F)(F)F)c3)nc21 [Example 502, 8-(1-Ethyl-propyl)-2-(4-fluoro-3-trifluoromethyl-phenylamino)-8H-pyrido[2,3-d]pyrimidin-7-one] | 360 nM | 350 nM | 100 nM | 21 nM | 68 nM |  |  |  |
